From patent US20240051952A1, “HMOX1 INDUCERS” (Mitobridge Inc., priority 2019, published 2024)

Assays:
[1] = tested on: FTH1; experiment: FTH1 mRNA expression in HepG2 cells (Nanostring); type: cell-based, human; conditions: 24 hours treatment
Protocol: RNA Isolation and Quantification of Gene Expression
HepG2 cells were seeded at 250 k/well in 12-well tissue culture plates coated with collagen (collagen I, rat tail (thin plate coating); ENZO Life Sciences) for approximately 24 hours. The seeded cells were then treated with dose titration of the compound of Example 17 or dimethyl fumarate (DMF) (a Nrf2 activator; Fisher Scientific) via media change, with biological triplicates performed for each treatment. After approximately 24 hours of treatment, cells were visually inspected to confirm that no toxicity occurred with compound treatment. The treated cells were washed with PBS, aspirated, parafilmed and frozen at −80° C. prior to RNA isolation. RNA was isolated using Machery-Nagel isolation kit (NucleoSpin® RNA: catalog 740955.250) and then quantitated using ThermoFisher Nanodrop.
RNA was diluted for Nanostring gene expression analysis. The diluted RNA at an input of 200ng RNA was run on a Nanostring instrument, which was supported with nCounter® SPRINT Profiler System and nSolver4.0 Software, nCounter® SPRINT Cartridge, nCounter® SPRINT Reagent Pack, and nCounter© SPRINT Hybridization Buffer. Analysis was done manually using raw data obtained from nSolver4.0 Software. CLTC, POLR2A, RPL27 and TBP were used as reference genes for normalization. Data was graphed as fold change compared to DMSO treatment. […]

[2] = tested on: VCAM-1; experiment: VCAM-1 gene expression in TNFα-stimulated primary human endothelial cells; type: cell-based; conditions: HPAEC
Excerpt: Example 150. Gene Expression in Primary Human Endothelial Cells
Inflammatory conditions in endothelial cells increase expression of adhesion molecules, such as VCAM-1, ICAM-1 and E-selectin through NF-kB signaling. HMOX1 −/− endothelial cells show increased expression of VCAM-1 in response to TNF stimulation, as compared to HMOX +/+endothelial cells. See Seldon et al., J Immunol Dec. 1, 2007, 179 (11) 7840-7851.
Primary human pulmonary artery endothelial cells (HPAEC) (Lonza #CC-2530) were seeded in 12-well plates (TrueLine #TR5001) at 200 k cells per well and placed at 37° C. in 5% CO2. 18-24 hr post seeding, cells were treated with the compound of Example 17 via media change. 24 hr post treatment with the compound, cells were treated with 10 ng/mL TNFα (Invitrogen #PHC3015 in H2O) alone or with the compound of Example 17. […] 20ng cDNA was mixed with water, iQ™ SYBR® Green Supermix (BioRad #170-8886), and 300 nM primer (IDT #NM_001078) for a total 10ul reaction and loaded into 384-well white qPCR plates and subsequently analyzed using BioRad CFX384. […] To calculate fold change, the ΔCt on a per sample basis was calculated as Ct (Gene of interest)—Ct (Average of reference genes). The ΔΔCt was then calculated as ΔCt (experimental sample)—Average ΔCt (control group). […]

[3] = tested on: Primary human pulmonary artery endothelial cells (HPAEC); experiment: Glutathione (GSH) levels in primary human endothelial cells under hemin stress; type: cell-based
Protocol: Example 149. Glutathione (GSH) Levels in Primary Human Endothelial Cells
Primary human pulmonary artery endothelial cells (HPAEC) (Lonza #CC-2530) cultured in endothelial cell growth medium-2 (EGM2 media, Lonza #CC-3162) were seeded in white 96-well plate (Corning® #3610) at 12.5 k cells per well and placed at 37° C. in 5% CO2. 18-24 hr post seeding, cells were treated with the compound of Example 17 via media change. 24 hr post treatment with the compound, cells were treated using a freshly prepared hemin stock (Sigma-Aldrich #51280 in 0.1N NaOH) alone or with the compound of Example 17. […] Media was aspirated off and GSH-Glo™ Glutathione Assay (Promega #V6911) was run following the manufacturer's protocol. White bottom plate seal (PerkinElmer #6005199) was used during read. Analysis was done using Softmax Pro.

With `Cn1c(Nc2nc3ccccc3o2)nc2cc(C(=O)NCCOCCO)ccc21` [Example 17, 2-(benzo[d]oxazol-2-ylamino)-N-(2-(2-hydroxyethoxy)ethyl)-1-methyl-1H-benzo[d]imidazole-5-carboxamide] the “FTH1 expression fold increase” value [1] was “comparable fold increases”, the “TNF-α mediated endothelial cell activation (VCAM-1 expression)” value ([2]; 24 hr pre-treatment, 10 ng/mL TNFα 4 hours) was “reduced this TNF-α mediated endothelial cell activation” and the “toxicity, visual inspection of cells” value ([2]; after 4 hours of TNFα treatment) was “no toxicity being noted”. The “GSH levels / protection from hemin mediated oxidative stress” value ([3]; 24 hr pre-incubation, 30 min hemin stress) was “protects these cells from hemin mediated oxidative stress” and the “toxicity, visual inspection of cells” value ([3]; after 30 min of hemin stress) was “no toxicity being noted”.
